In US11225480B2, “Malic enzyme inhibitors” (SUN PHARMA ADVANCED RESEARCH COMPANY LTD, priority 2019, dated 2022):
Counter-ions that a name gives are not always drawn.

How the values were obtained:
Format in all cases: biochemical
human ME3 enzyme = biological target: T1, human ME3 enzyme (Homo sapiens, UniProt Q16798); assay: ME3 inhibition assay (diaphorase/resazurin coupled fluorescence); settings: 10 μM compound concentration; read-out: Malic Enzyme 3 % inhibition (10 μM)
T1 sequence (Q16798 1-604): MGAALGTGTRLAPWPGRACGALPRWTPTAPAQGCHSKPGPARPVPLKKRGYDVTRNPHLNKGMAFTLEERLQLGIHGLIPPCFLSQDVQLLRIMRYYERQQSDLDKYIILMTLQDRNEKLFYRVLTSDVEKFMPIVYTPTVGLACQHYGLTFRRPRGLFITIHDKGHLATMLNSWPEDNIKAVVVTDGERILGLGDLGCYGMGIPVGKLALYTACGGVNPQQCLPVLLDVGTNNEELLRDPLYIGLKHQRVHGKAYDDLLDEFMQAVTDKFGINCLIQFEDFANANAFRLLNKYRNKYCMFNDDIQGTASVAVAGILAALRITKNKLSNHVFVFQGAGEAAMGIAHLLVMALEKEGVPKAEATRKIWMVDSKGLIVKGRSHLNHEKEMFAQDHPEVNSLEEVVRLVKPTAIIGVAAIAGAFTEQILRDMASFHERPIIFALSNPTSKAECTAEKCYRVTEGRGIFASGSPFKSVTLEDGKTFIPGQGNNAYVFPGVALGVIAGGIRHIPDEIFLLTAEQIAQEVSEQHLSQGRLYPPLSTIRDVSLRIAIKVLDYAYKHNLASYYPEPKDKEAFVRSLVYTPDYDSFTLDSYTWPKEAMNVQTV
How it was run: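 Coupled read-out: NADPH made by human ME3 (20 nM stock) drives diaphorase conversion of resazurin (50 μM) to resorufin; buffer 50 mM Tris-HCl pH 7.5, 10 mM MnCl2, 3 mM L-malate.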

human ME2 enzyme = human ME2 enzyme (Homo sapiens, UniProt P23368); assay: ME2 inhibition assay (diaphorase/resazurin coupled fluorescence); settings: 10 μM compound concentration; read-out: Malic Enzyme 2 % inhibition (10 μM)
human ME2 enzyme, sequence (P23368 19-584): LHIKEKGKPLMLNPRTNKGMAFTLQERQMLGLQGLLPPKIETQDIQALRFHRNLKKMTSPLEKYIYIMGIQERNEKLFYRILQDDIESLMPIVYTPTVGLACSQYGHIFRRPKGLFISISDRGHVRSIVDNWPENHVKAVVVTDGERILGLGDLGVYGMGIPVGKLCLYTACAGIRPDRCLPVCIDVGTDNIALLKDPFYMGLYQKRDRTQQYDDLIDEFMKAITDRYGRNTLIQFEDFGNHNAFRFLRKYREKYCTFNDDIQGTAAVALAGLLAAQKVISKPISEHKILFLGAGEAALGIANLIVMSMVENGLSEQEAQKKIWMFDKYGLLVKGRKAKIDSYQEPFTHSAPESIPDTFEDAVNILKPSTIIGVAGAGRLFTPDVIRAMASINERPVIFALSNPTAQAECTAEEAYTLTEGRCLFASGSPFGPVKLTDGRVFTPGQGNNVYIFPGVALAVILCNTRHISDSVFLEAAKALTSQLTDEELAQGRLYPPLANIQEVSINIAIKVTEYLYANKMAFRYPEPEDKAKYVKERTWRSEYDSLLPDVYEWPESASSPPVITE
Experimental: ME2 catalyzes the oxidative decarboxylation of malate to pyruvate with conversion of the co-factor β-NAD+ to β-NADH. In the fluorescence assay, a coupled reaction is set up where in an enzyme, Diaphorase, utilizes NADH generated by ME2, to convert the dye resazurin to a fluorescent molecule resorufin. Resorufin has a characteristic fluorescence with excitation/emission at 540/600 nm (SLAS Discov., 2017 April 1:2472555217706649).
The enzyme activity inhibition assay is set up in a 200 μL final reaction volume in a 96-well plate. As per the experimental design, 2 μL of the compounds at 100× the desired concentration (10 μM) in DMSO were added to the respective wells with 178 μL of assay buffer (50 mM Tris-HCl pH 7.5, 10 mM MnCl2, 7 mM L-malate, 50 μM Resazurin and 0.025 mg/ml Diapharose). The 96-well plate was incubated on a plate shaker at room temperature for 15 minutes protected from light. The well contents were gently mixed by adding 10 μL of 60 nM human ME2 enzyme to the wells and the plate was incubated on a shaker at room temperature for 5 minutes protected from light. Suitable ‘enzyme only’ and ‘no enzyme’ controls were included in the experiment. The enzymatic reaction was started by adding 10 μL of 2 mM β-NAD+. The reaction was gently mixed and the plate was initially left on a shaker at room temperature for −7 minutes protected from light. Later, the plate was incubated without shaking at room temperature for 2 hours. At the end of 2 hours, the fluorescence of the wells was measured at excitation 540 nm and emission 600 nm. The % enzyme activity of the compounds is obtained by normalizing the data with enzyme only (100%) and no enzyme controls (0%) using GraphPad Prism software 7.04.

human ME1 enzyme = biological target: T2, human ME1 enzyme (Homo sapiens, UniProt P48163); assay: ME1 inhibition assay (diaphorase/resazurin coupled fluorescence); settings: 10 μM compound concentration; read-out: Malic Enzyme 1 % inhibition (10 μM)
T2 sequence (P48163 1-572): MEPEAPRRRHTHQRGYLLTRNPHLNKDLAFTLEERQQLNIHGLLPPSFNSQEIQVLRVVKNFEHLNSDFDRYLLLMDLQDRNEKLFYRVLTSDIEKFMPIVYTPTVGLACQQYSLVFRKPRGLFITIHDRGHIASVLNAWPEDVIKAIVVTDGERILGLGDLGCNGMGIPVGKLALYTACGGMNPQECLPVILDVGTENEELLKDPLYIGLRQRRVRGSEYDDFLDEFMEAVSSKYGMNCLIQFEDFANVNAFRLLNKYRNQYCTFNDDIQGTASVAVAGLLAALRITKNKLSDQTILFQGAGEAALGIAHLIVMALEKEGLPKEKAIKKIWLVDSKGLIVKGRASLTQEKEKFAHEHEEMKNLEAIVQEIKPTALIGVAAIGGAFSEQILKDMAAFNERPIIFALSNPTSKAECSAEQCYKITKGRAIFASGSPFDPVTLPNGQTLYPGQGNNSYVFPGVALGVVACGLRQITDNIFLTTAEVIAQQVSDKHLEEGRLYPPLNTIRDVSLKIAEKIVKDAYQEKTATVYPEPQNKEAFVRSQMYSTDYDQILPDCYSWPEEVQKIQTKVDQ
How it was run: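 Compounds at 10 μM preincubated 15 min in 50 mM Tris-HCl pH 7.5, 10 mM MnCl2, 2 mM L-malate, 10 μM resazurin, 0.01 mg/ml diaphorase, then human ME1 added for 5 min; reaction started with NADP+ and run 2 h at room temperature. Resorufin fluorescence (ex 540/em 600 nm) normalized to enzyme-only (100%) and no-enzyme (0%) controls.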

SMILES	inhibition at 10 µM (human ME3 enzyme)	inhibition at 10 µM (human ME2 enzyme)	inhibition at 10 µM (human ME1 enzyme)
O=C(CCCCc1ccccc1)N1CCN(c2ccc(O)cn2)CC1 [I.68, 1-[4-(5-Hydroxy-pyridin-2-yl)-piperazin-1-yl]-5-phenylpentan-1-one hydrochloride]	> 90%	70 to 89%	> 90%
Cn1cc(C(=O)N2CCN(c3ccc(O)cn3)CC2)c(=O)c2ccccc21 [I.69, 3-[4-(5-Hydroxy-2-pyridyl)-piperazine-1-carbonyl]-1-methyl-quinolin-4-one]	> 90%	70 to 89%	70 to 89%
O=C(O)CCCC(=O)N1CCN(c2ccc(O)cn2)CC1 [I.70, 5-[4-(5-hydroxy-2-pyridyl)piperazin-1-yl]-5-oxo-pentanoic acid]	> 90%	70 to 89%	70 to 89%
Cn1cc(C(=O)N2CCN(c3ccc(O)cn3)CC2)c2ccccc21 [I.71, [4-(5-Hydroxy-pyridin-2-yl)-piperazin-1-yl]-(1-methyl-1H-indol-3-yl)-methanone]	> 90%	70 to 89%	> 90%
O=C(CCc1cccc(C(F)(F)F)c1)N1CCN(c2ccc(O)cn2)CC1 [I.72, 1-[4-(5-Hydroxy-pyridin-2-yl)-piperazin-1-yl]-3-(3-trifluoro-methylphenyl)-propan-1-one]	> 90%	70 to 89%	> 90%
O=C(c1cc2ccccc2oc1=O)N1CCN(c2ccc(O)cn2)CC1 [I.73, 3-[4-(5-Hydroxy-2-pyridyl)-piperazine-1-carbonyl]-chromen-2-one]	> 90%	70 to 89%	70 to 89%
O=C(C=C(c1ccccc1)c1ccccc1)N1CCN(c2ccc(O)cn2)CC1 [I.74, 1-[4-(5-Hydroxy-2-pyridyl)-piperazin-1-yl]-3,3-diphenyl-prop-2-en-1-one]	> 90%	70 to 89%	> 90%
O=C(CC(c1ccccc1)c1ccccc1)N1CCN(c2ccc(O)cn2)CC1 [I.75, 1-[4-(5-Hydroxy-2-pyridyl)-piperazin-1-yl]-3,3-diphenyl-propan-1-one]	> 90%	70 to 89%	> 90%
O=C(CCc1ccc(Cl)c(Cl)c1)N1CCN(c2ccc(O)cn2)CC1 [I.79, 3-(3,4-Dichloro-phenyl)-1-[4-(5-hydroxy-pyridin-2-yl)-piperazin-1-yl]-propan-1-one]	> 90%	> 90%	> 90%
Cc1cccc(Cl)c1C(=O)N1CCN(c2ccc(O)cn2)CC1 [I.80, (2-Chloro-6-methylphenyl)-[4-(5-hydroxy-pyridin-2-yl)-piperazin-1-yl]-methanone]	> 90%	> 90%	> 90%
O=C(CCc1ccc(Cl)cc1)N1CCN(c2ccc(O)cn2)CC1 [I.82, 3-(4-Chloro-phenyl)-1-[4-(5-hydroxy-pyridin-2-yl)-piperazin-1-yl]-propan-1-one]	> 90%	> 90%	> 90%
O=C(CNC12CC3CC(CC(C3)C1)C2)N1CCN(c2ccc(O)cn2)CC1 [I.83, 2-(1-Adamantyl-amino)-1-[4-(5-hydroxy-2-pyridyl)-piperazin-1-yl]ethanone]	> 90%	50 to 69%	50 to 69%
COc1ccc(C(=CC(=O)N2CCN(c3ccc(O)cn3)CC2)c2ccc(OC)cc2)cc1 [I.84, 1-[4-(5-Hydroxy-2-pyridyl)-piperazin-1-yl]-3,3-bis(4-methoxy-phenyl)-prop-2-en-1-one]	> 90%	70 to 89%	70 to 89%
O=C(c1cc2cc(F)ccc2[nH]1)N1CCN(c2ccc(O)cn2)CC1 [I.88]	> 90%	70 to 89%	> 90%
O=C(CCc1cccc(F)c1)N1CCN(c2ccc(O)cn2)CC1 [I.92, 3-(3-Fluoro-phenyl)-1-[4-(5-hydroxy-pyridin-2-yl)-piperazin-1-yl]-propan-1-one]	> 90%	> 90%	> 90%
COc1ccc(C(CC(=O)N2CCN(c3ccc(O)cn3)CC2)c2ccc(OC)cc2)cc1 [I.93, 1-[4-(5-Hydroxy-2-pyridyl)-piperazin-1-yl]-3,3-bis(4-methoxy-phenyl)-propan-1-one]	> 90%	70 to 89%	70 to 89%
O=C(CC=C(c1ccccc1)c1ccccc1)N1CCN(c2ccc(O)cn2)CC1 [I.94, 1-[4-(5-Hydroxy-2-pyridyl)-piperazin-1-yl]-4,4-diphenyl-but-3-en-1-one]	> 90%	70 to 89%	70 to 89%
O=C(N1CCN(c2ccc(O)cn2)CC1)C(O)(c1ccccc1)C1CCCCC1 (stereo not drawn) [I.95, 2-cyclohexyl-2-hydroxy-1-[4-(5-hydroxy-2-pyridyl)piperazin-1-yl]-2-phenyl-ethanone]	> 90%	70 to 89%	70 to 89%
CN(CC(=O)N1CCN(c2ccc(O)cn2)CC1)CC12CC3CC(CC(C3)C1)C2 [I.96, 2-[1-Adamantyl-methyl-(methyl)-amino]-1-[4-(5-hydroxy-2-pyridyl)-piperazin-1-yl]ethanone]	> 90%	70 to 89%	70 to 89%
Cc1ccccc1CCC(=O)N1CCN(c2ccc(O)cn2)CC1 [I.107, 1-[4-(5-Hydroxy-pyridin-2-yl)-piperazin-1-yl]-3-o-tolyl-propan-1-one]	> 90%	> 90%	> 90%
CC(CC(=O)N1CCN(c2ccc(O)cn2)CC1)c1ccccc1 (stereo not drawn) [I.115, 1-[4-(5-Hydroxy-pyridin-2-yl)-piperazin-1-yl]-3-phenyl-butan-1-one dihydro-chloride]	> 90%	> 90%	> 90%
O=C(CCc1cccs1)N1CCN(c2ccc(O)cn2)CC1 [I.116, 1-[4-(5-Hydroxy-pyridin-2-yl)-piperazin-1-yl]-3-thiophen-2-yl-propan-1-one]	> 90%	> 90%	> 90%
O=C(CCC1CCCCC1)N1CCN(c2ccc(O)cn2)CC1 [I.121, 3-Cyclohexyl-1-[4-(5-hydroxy-2-pyridyl)-piperazin-1-yl]propan-1-one]	> 90%	> 90%	> 90%
